Data reported in ChEMBL document CHEMBL1201862, “PubChem BioAssay data set” (2004).
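Step 1: Grow cells in 96-well plates. Step 2: Expose to compound for 48 hours at 5 concentrations. Step 3: Interpolate endpoints linearly; if unreached, use highest concentration. The concentration for 50% growth inhibition is given as GI50.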 Active and inactive are the calls of the source. Cut-off read from the data, not from the text of the source: active = GI50 up to about 1.1 µM and inactive = higher.

Tests used:
Assay in all cases: NCI anticancer screen, dose series, 48 h
SNB-19 = test system: SNB-19
NCI-H226 = test system: NCI-H226
SK-MEL-2 = test system: SK-MEL-2
HCT-116 = test system: HCT-116
SK-OV-3 = test system: SK-OV-3
UO-31 = test system: UO-31
UACC-257 = test system: UACC-257
MDA-MB-435 = test system: MDA-MB-435
OVCAR-8 = test system: OVCAR-8
K562 = test system: K562
A498 = test system: A498
DU-145 = test system: DU-145
HL-60 = test system: HL-60
RPMI-8226 = test system: RPMI-8226
OVCAR-3 = test system: OVCAR-3
EKVX = test system: EKVX
RXF 393 = test system: RXF 393
SNB-75 = test system: SNB-75
SK-MEL-5 = test system: SK-MEL-5
UACC-62 = test system: UACC-62

Row | SMILES | GI50 (SNB-19) | GI50 (NCI-H226) | GI50 (SK-MEL-2) | GI50 (HCT-116) | GI50 (SK-OV-3) | GI50 (UO-31) | GI50 (UACC-257) | GI50 (MDA-MB-435) | GI50 (OVCAR-8) | GI50 (K562) | GI50 (A498) | GI50 (DU-145) | GI50 (HL-60) | GI50 (RPMI-8226) | GI50 (OVCAR-3) | GI50 (EKVX) | GI50 (RXF 393) | GI50 (SNB-75) | GI50 (SK-MEL-5) | GI50 (UACC-62)
1 | COc1ccc([C@]23CCN(S(=O)(=O)c4ccc(C)cc4)[C@H]2[C@H](CO)C2(CC3)OCC(C)(C)CO2)cc1OC | > 100 µM (inactive) | > 100 µM (inactive) | > 100 µM (inactive) | > 100 µM (inactive) | > 100 µM (inactive) | > 100 µM (inactive) | > 100 µM (inactive) | > 100 µM (inactive) | > 100 µM (inactive) | > 100 µM (inactive) | > 100 µM (inactive) | > 100 µM (inactive) | > 100 µM (inactive) | > 100 µM (inactive) | > 100 µM (inactive) | > 100 µM (inactive) | 98.6 µM (inactive) | > 100 µM (inactive) | > 100 µM (inactive) | > 100 µM (inactive)
2 | O=C1Nc2ccccc2/C1=N/NC(=S)N1CCCC1 | 1.15 µM (inactive) | 0.247 µM (active) | 6.27 µM (inactive) | 0.425 µM (active) | 5.12 µM (inactive) | 0.632 µM (active) | 6.97 µM (inactive) | 3.64 µM (inactive) | 1.02 µM (active) | 0.586 µM (active) | 2.95 µM (inactive) | 17.1 µM (inactive) | 0.583 µM (active) | 0.743 µM (active) | 0.53 µM (active) | 2.37 µM (inactive) | 0.358 µM (active) | 3.45 µM (inactive) | 0.585 µM (active) | 1.32 µM (inactive)
3 | CC(C)=CCC[C@@H](C)C1=C(N)C(=O)C(C)=C(O)C1=O | 60.7 µM (inactive) | 27.5 µM (inactive) | 65.9 µM (inactive) | 27.6 µM (inactive) | 71.1 µM (inactive) | 36 µM (inactive) | > 75 µM (inactive) | 44.8 µM (inactive) | 22.4 µM (inactive) | 35.7 µM (inactive) | 29.9 µM (inactive) | > 75 µM (inactive) | 13 µM (inactive) | 39.8 µM (inactive) | 33 µM (inactive) | 30.6 µM (inactive) | > 75 µM (inactive) | 40.6 µM (inactive) | 24.8 µM (inactive) | 31.1 µM (inactive)
4 | C=C(CC[C@@H](C(=O)O)[C@H]1[C@H](O)C[C@@]2(C)C3=CC[C@@H](C(=C)C)[C@](C)(CCC(=O)O)C3=CC[C@]12C)C(C)C [PORICOIC ACID A] | 17.7 µM (inactive) | 19.7 µM (inactive) | 18.5 µM (inactive) | 16.4 µM (inactive) | 18 µM (inactive) | 17.2 µM (inactive) | 16.4 µM (inactive) | 18.8 µM (inactive) | 19.5 µM (inactive) | 26.5 µM (inactive) | 23.6 µM (inactive) | 20.6 µM (inactive) | 15.9 µM (inactive) |  | 19.1 µM (inactive) | 17.6 µM (inactive) | 17.2 µM (inactive) | 20.4 µM (inactive) | 20.4 µM (inactive) | 15.3 µM (inactive)
5 | O=c1[nH]nc(Cc2ccccc2)[nH]1 | > 100 µM (inactive) | > 100 µM (inactive) | > 100 µM (inactive) | > 100 µM (inactive) |  | > 100 µM (inactive) | > 100 µM (inactive) | > 100 µM (inactive) | > 100 µM (inactive) | > 100 µM (inactive) | > 100 µM (inactive) | > 100 µM (inactive) | > 100 µM (inactive) | > 100 µM (inactive) | > 100 µM (inactive) | > 100 µM (inactive) | > 100 µM (inactive) | > 100 µM (inactive) | > 100 µM (inactive) | > 100 µM (inactive)
6 | COC(=O)C1=Cc2cc(OC)c(O)cc2[C@@H](c2ccc(O)c(OC)c2)[C@@H]1C(=O)OC | > 100 µM (inactive) | > 100 µM (inactive) |  | > 100 µM (inactive) |  | 10.5 µM (inactive) | > 100 µM (inactive) | 45.5 µM (inactive) | > 100 µM (inactive) | 57.3 µM (inactive) | > 100 µM (inactive) | > 100 µM (inactive) | > 100 µM (inactive) | > 100 µM (inactive) | > 100 µM (inactive) | > 100 µM (inactive) | 61.7 µM (inactive) | 58.1 µM (inactive) | 43.9 µM (inactive) | 
7 | O=[N+]([O-])c1cccc(-c2ncnc(-c3cccc([N+](=O)[O-])c3)n2)c1 |  | > 100 µM (inactive) | 51.5 µM (inactive) | > 100 µM (inactive) | 27.1 µM (inactive) | > 100 µM (inactive) | 38.7 µM (inactive) | > 100 µM (inactive) | > 100 µM (inactive) | 48.6 µM (inactive) | 23.9 µM (inactive) | > 100 µM (inactive) | 36.6 µM (inactive) | > 100 µM (inactive) | 35.9 µM (inactive) | > 100 µM (inactive) | 18.5 µM (inactive) | 26.7 µM (inactive) | > 100 µM (inactive) | 27.4 µM (inactive)
8 | CN(C)Cc1cc(/N=N/c2ccccc2)ccc1O | > 100 µM (inactive) | 95.9 µM (inactive) | 38.9 µM (inactive) | > 100 µM (inactive) |  | 21.9 µM (inactive) | 25.6 µM (inactive) | 34.8 µM (inactive) | 76.4 µM (inactive) | 24.2 µM (inactive) | 25.1 µM (inactive) | 22.7 µM (inactive) | 41.5 µM (inactive) | 56 µM (inactive) | 68.2 µM (inactive) | 40 µM (inactive) | 3.94 µM (inactive) | 10 µM (inactive) | 15.1 µM (inactive) | 24.5 µM (inactive)
9 | CCCCCCCCCCCC(=O)OCC(O)CO (configuration not stated) [GLYCEROL MONOLAURATE] | > 100 µM (inactive) | > 100 µM (inactive) | > 100 µM (inactive) | > 100 µM (inactive) | > 100 µM (inactive) | 71.9 µM (inactive) | > 100 µM (inactive) | 61.4 µM (inactive) | > 100 µM (inactive) |  | > 100 µM (inactive) | > 100 µM (inactive) | 12.9 µM (inactive) |  | 76.9 µM (inactive) | > 100 µM (inactive) |  | > 100 µM (inactive) | 59 µM (inactive) | > 100 µM (inactive)
10 | Cc1ccc(S(=O)(=O)N2CCN(S(=O)(=O)c3ccc(C)cc3)CCN(S(=O)(=O)c3ccc(C)cc3)Cc3cc(C#N)c(C#N)cc3CN(S(=O)(=O)c3ccc(C)cc3)CC2)cc1 | 51.1 µM (inactive) | 56.2 µM (inactive) |  | > 100 µM (inactive) | > 100 µM (inactive) | > 100 µM (inactive) | > 100 µM (inactive) | > 100 µM (inactive) | > 100 µM (inactive) | > 100 µM (inactive) | 20.7 µM (inactive) | > 100 µM (inactive) | > 100 µM (inactive) | > 100 µM (inactive) | > 100 µM (inactive) | > 100 µM (inactive) | > 100 µM (inactive) | 19.1 µM (inactive) | > 100 µM (inactive) | > 100 µM (inactive)
11 | CCOP(=O)(OCC)/C(C#N)=C/c1ccccn1 | > 100 µM (inactive) | > 100 µM (inactive) |  | > 100 µM (inactive) | > 100 µM (inactive) |  | > 100 µM (inactive) | > 100 µM (inactive) | > 100 µM (inactive) | > 100 µM (inactive) | > 100 µM (inactive) | > 100 µM (inactive) | > 100 µM (inactive) | > 100 µM (inactive) | > 100 µM (inactive) | > 100 µM (inactive) | > 100 µM (inactive) | > 100 µM (inactive) | > 100 µM (inactive) | > 100 µM (inactive)
12 | COc1cc2c(c3c1c(=O)c1ccccc1n3C)C=CC1(CCCC1)O2 | 18.5 µM (inactive) | 16 µM (inactive) | 14 µM (inactive) | 15.1 µM (inactive) | 21.6 µM (inactive) |  | 15.9 µM (inactive) | 16.4 µM (inactive) | 18.4 µM (inactive) | 7.5 µM (inactive) | 18 µM (inactive) | 17.6 µM (inactive) | 7.29 µM (inactive) | 1.81 µM (inactive) | 13.2 µM (inactive) | 13.5 µM (inactive) | 5.61 µM (inactive) | 11.8 µM (inactive) | 12.9 µM (inactive) | 13.1 µM (inactive)
13 | CC(C)C1OCC(CO)CO1 (configuration not stated) | > 100 µM (inactive) | > 100 µM (inactive) | > 100 µM (inactive) | > 100 µM (inactive) | > 100 µM (inactive) | > 100 µM (inactive) | > 100 µM (inactive) | > 100 µM (inactive) | > 100 µM (inactive) |  | > 100 µM (inactive) | > 100 µM (inactive) | > 100 µM (inactive) | > 100 µM (inactive) | > 100 µM (inactive) | > 100 µM (inactive) | > 100 µM (inactive) | > 100 µM (inactive) | > 100 µM (inactive) | > 100 µM (inactive)
14 | C=CCOCn1ccc(NC(=O)c2ccccc2)nc1=O | > 100 µM (inactive) | > 100 µM (inactive) |  | > 100 µM (inactive) | > 100 µM (inactive) | > 100 µM (inactive) | > 100 µM (inactive) | > 100 µM (inactive) | > 100 µM (inactive) | > 100 µM (inactive) | > 100 µM (inactive) | > 100 µM (inactive) | > 100 µM (inactive) | > 100 µM (inactive) |  | > 100 µM (inactive) |  | > 100 µM (inactive) | > 100 µM (inactive) | > 100 µM (inactive)
